From a compilation of properties of binary mixtures (doi:10.1016/j.molliq.2016.09.008)

Test: xn = mol fraction of the nth substance listed
Conditions: 298.15 K, 101 kPa

Work on `C[N+](=O)[O-]` + CC[NH3+].O=[N+]([O-])[O-] yielded an electrical conductivity (x1 = 1) of 0.0031 S/m and a viscosity (x1 = 1) of 0.637 mPa·s.
Compound `CC[NH3+].O=[N+]([O-])[O-]` + C[N+](=O)[O-] has an electrical conductivity (x1 = 0.0034) of 0.0549 S/m, a viscosity (x1 = 0.0034) of 0.652 mPa·s and an electrical conductivity (x1 = 0.0062) of 0.0721 S/m. The viscosity (x1 = 0.0062) was 0.662 mPa·s, the electrical conductivity (x1 = 0.0112) was 0.0945 S/m and the viscosity (x1 = 0.0112) was 0.679 mPa·s. The electrical conductivity (x1 = 0.0129) was 0.1 S/m, the viscosity (x1 = 0.0129) was 0.683 mPa·s and the electrical conductivity (x2 = 0.0498) was 2.34 S/m. For the same compound, the viscosity (x2 = 0.0498) was 34.1 mPa·s, the electrical conductivity (x2 = 0.1048) was 2.4 S/m and the viscosity (x2 = 0.1048) was 31.5 mPa·s. It also gave an electrical conductivity (x2 = 0.2032) of 2.56 S/m, a viscosity (x2 = 0.2032) of 23.9 mPa·s and an electrical conductivity (x2 = 0.3007) of 2.7 S/m. For the same compound, the viscosity (x2 = 0.3007) was 20.3 mPa·s, the electrical conductivity (x2 = 0.3874) was 2.94 S/m and the viscosity (x2 = 0.3874) was 15.3 mPa·s. The electrical conductivity (x2 = 0.4983) was 2.71 S/m and the viscosity (x2 = 0.4983) was 8.52 mPa·s.
